Values after ≈ are worked out from the molar mass of the structure shown. Where a SMILES comes first, the peptide text is derived from it. Bridges are numbered along the chain shown (N, C = ends).
What was measured:
[1] = system: human red blood cells; assay: Human hemolysis assay; format: cell-based; conditions: 30 min, 37°C, absorbance 540 nm, duplicate
Experimental: […]. Distilled water was used as a control for 100% hemolysis with the background level of absorbance being water only (Stasiuk et al., [2004]). The percent hemolysis was calculated as (test wellAbs – backgroundAbs) / (100% lysisAbs – backgroundAbs). Experiments were run in duplicate.

[2] = system: K. pneumonia 6066; assay: microbe, parasite or virus in culture; format: cell-based, Klebsiella pneumoniae; conditions: 24 h
Experimental: (§1) Strains were obtained from American Type Culture Collection (ATCC, Manassas, VA) or the clinical isolate collection at Trideum Biosciences (Frederick, MD, USA). Bioluminescence strains of P. aeruginosa 19660, transfected with the Xen5 luciferase gene, and S. aureus ATCC® 49525™ (Wright), transfected with the Xen36 luciferase gene, were obtained from Perkin Elmer (Hopkinton, MA).
(§2) A single colony was aseptically picked from an agar overlay and released in 25–30 mL of pre-warmed trypticase soy broth in a culture flask. Each culture was incubated overnight in a 37°C incubator. […] Pathogen growth was measured by absorbance at 600 nm. Four replicas were included for each test agent concentration. […]

[3] = system: K. pneumonia ATCC 10031; assay: microbe, parasite or virus in culture; format: cell-based, Klebsiella pneumoniae; conditions: ATCC 10031, 24 h
Experimental: as §1, §2

[4] = system: K. pneumonia 6069; assay: microbe, parasite or virus in culture; format: cell-based, Klebsiella pneumoniae; conditions: 24 h
Experimental: as §1, §2

[5] = system: Gentamicin resistant P. aeruginosa from passage 30; conditions: gentamicin resistant P. aeruginosa from passage 30 (gentamicin MIC 512 μg/mL)
Description: (§3) The development of resistance was confirmed if the microorganism started growing at continuously higher concentrations. […] Evaluations were done in duplicate.

[6] = system: clindamycin resistant S. aureus from passage 30
Description: as §3

[7] = system: MDR S. epidermidis ATCC 700578 biofilm; format: cell-based; conditions: CFU count
Experimental: (§4) Biofilms (methicillin-resistant S. epidermidis, MRSE ATCC 51625 and multidrug resistant S. epidermidis MDR-SE ATCC 700578) were established following inoculation of 10^5 CFU/mL in Minimum Essential Media for 6 h or 5 days representing preformed or mature biofilm respectively, in plastic 96-well plates (Costar, Catalog #3595). […] Following test agent incubation, the media (including the planktonic cells) was removed and then the remaining biofilm treated with 50 μL 0.1% Triton X100 followed by agitating the plate on a rocker for 30 min. The biofilm was then disrupted with a 96 well replicator, the resultant mixture vortexed, samples serially diluted, plated on agar plates, and incubated overnight and CFUs subsequently counted. Three technical replicates were performed for each condition tested.

[8] = system: methicillin-resistant S. epidermidis biofilm; format: cell-based
Experimental: as §4

SMILES: CC[C@H](C)[C@@H]1NC(=O)CNC(=O)[C@H](CCCCN)NC(=O)[C@H](Cc2ccc(O)cc2)NC(=O)[C@@H]2CSSC[C@H](NC1=O)C(=O)N[C@@H](Cc1ccccc1)C(=O)N[C@@H](CCCCN)C(=O)N[C@@H](CCCCN)C(=O)N[C@H](C(=O)N[C@@H](CCCCN)C(N)=O)CSSC[C@H](NC(=O)[C@H](Cc1ccccc1)NC(=O)[C@@H](N)CCCNC(=N)N)C(=O)N[C@@H](Cc1c[nH]c3ccccc13)C(=O)N[C@@H](CCCCN)C(=O)N[C@@H](C(C)C)C(=O)N2 [RP557] (H-RFCWKVCYKGICFKKCK-NH2; disulfide 3-16, 7-12)
- Minimum hemolytic concentration required to cause 10% hemolysis, MHC [1]: 128 µg/mL
- Minimum Inhibitory Concentration (MIC) [2]: 4.0 [8] μM
- Minimum Inhibitory Concentration (MIC) [3]: 4.0 [8] μM
- Minimum Inhibitory Concentration (MIC) [4]: 2.0 [4] μM
- MIC [5]: 4 µg/mL (≈ 1.87 µM)
- MIC [6]: 2 µg/mL (≈ 0.936 µM)
- EC90, biofilm [7]: 8 µg/mL (≈ 3.75 µM)
- EC90, biofilm [8]: 8 µg/mL (≈ 3.75 µM)
